Data reported in US9718841B2, “Bicyclic pyrazolone compounds and methods of use” (CALITOR SCIENCES, LLC, priority 2014, dated 2017).

Assays:
[1] = Pharmacokinetic profiles in rats; format: in vivo; details: bioavailability
Method: The compounds disclosed herein are assessed in pharmacokinetic studies in mice, rats, dogs or monkeys. The compounds are administered as a water solution, 2% HPMC+1% TWEEN® 80 in water solution, 5% DMSO+5% solutol in saline, 4% MC suspension or capsule. For the intravenous administration, the animals are generally given at 1 or 2 mg/kg dose. For the oral (p.o.) dosing, mice and rats are generally given 5 or 10 mg/kg dose, and dogs and monkeys are generally given 10 mg/kg dose. The blood samples (0.3 mL) are drawn at 0.25, 0.5, 1.0, 2.0, 3.0, 4.0, 6.0, 8.0, 12 and 24 h time points or 0.083, 0.25, 0.5, 1.0, 2.0, 4.0, 6.0, 8.0 and 24 h time points and centrifuged at 3,000 or 4000 rpm for 2 to 10 min. The plasma solutions are collected, and stored at −20° C. or −70° C. until analyzed by LC/MS/MS as described above.

[2] = Compound stability in human liver microsomes; format: in vitro ADME; details: 37° C.
Method: Human or rat liver microsomes incubations were conducted in duplicate in polypropylene tubes. The typical incubation mixtures consisted of human or rat liver microsomes (0.5 mg protein/mL), compounds of interest (5 μM) and NADPH (1.0 mM) in a total volume of 200 μL potassium phosphate buffer (PBS, 100 mM, pH 7.4). Compounds were dissolved in DMSO and diluted with PBS such that the final concentration of DMSO was 0.05%. The enzymatic reactions were commenced with the addition of protein after a 3-min preincubation and incubated in a water bath open to the air at 37° C. Reactions were terminated at various time points (0, 5, 10, 15, 30, 60 min) by adding equal volume of ice-cold acetonitrile. The samples were stored at −80° C. until LC/MS/MS assays.
The concentrations of compounds in the incubation mixtures of human or rat liver microsomes were determined by a LC/MS/MS method. The ranges of the linearity in the concentration range were determined for each tested compounds.
A parallel incubation was performed using denatured microsomes as the negative control, and reactions were terminated at various time points (0, 15, 60 min) after incubation at 37° C.
Dextromethorphan (70 μM) was selected as the positive control, and reactions were terminated at various time points (0, 5, 10, 15, 30, 60 min) after incubation at 37° C. […]

SMILES | F [1] | T1/2 [2]
Nc1cc(Oc2ccc(NC(=O)c3c4n(n(-c5ccccc5)c3=O)CCC4)cc2)ccn1 [Ex. 1, N-(4-((2-aminopyridin-4-yl)oxy)phenyl)-2-oxo-1-phenyl-2,4,5,6-tetrahydro-1H-pyrrolo[1,2-b]pyrazole-3-carboxamide] | 163.3% | –
CC(=O)Nc1cc(Oc2ccc(NC(=O)c3c4n(n(-c5ccccc5)c3=O)CCC4)cc2)ccn1 [Ex. 3, N-(4-((2-acetamidopyridin-4-yl)oxy)phenyl)-2-oxo-1-phenyl-2,4,5,6-tetrahydro-1H-pyrrolo[1,2-b]pyrazole-3-carboxamide] | 94.5% | –
O=C(Nc1ccc(Oc2ccnc(NC(=O)C3CC3)c2)cc1)c1c2n(n(-c3ccccc3)c1=O)CCC2 [Ex. 2, N-(4-((2-(cyclopropanecarboxamido)pyridin-4-yl)oxy)phenyl)-2-oxo-1-phenyl-2,4,5,6-tetrahydro-1H-pyrrolo[1,2-b]pyrazole-3-carboxamide] | 68.1% | –
CC(=O)Nc1cc(Oc2ccc(NC(=O)c3c4n(n(-c5ccccc5)c3=O)CCOC4)nc2)ccn1 [Ex. 12, N-(5-((2-acetamidopyridin-4-yl)oxy)pyridin-2-yl)-2-oxo-1-phenyl-2,4,6,7-tetrahydro-1H-pyrazolo[5,1-c][1,4]oxazine-3-carboxamide] | 72.1% | ∞
O=C(Nc1ccc(Oc2ccnc(NC(=O)C3CC3)c2)cn1)c1c2n(n(-c3ccccc3)c1=O)CCC2 [Ex. 14, N-(5-((2-(cyclopropanecarboxamido)pyridin-4-yl)oxy)pyridin-2-yl)-2-oxo-1-phenyl-2,4,5,6-tetrahydro-1H-pyrrolo[1,2-b]pyrazole-3-carboxamide] | 87.9% | –
O=C(Nc1ccc(Oc2ccnc(NC(=O)C3CC3)c2)cc1)c1c2n(n(-c3ccccc3)c1=O)CCOC2 [Ex. 19, N-(4-((2-(cyclopropanecarboxamido)pyridin-4-yl)oxy)phenyl)-2-oxo-1-phenyl-2,4,6,7-tetrahydro-1H-pyrazolo[5,1-c][1,4]oxazine-3-carboxamide] | 66.7% | ∞
